From patent US20140163034A1, “INHIBITORS OF ANANDAMIDE TRANSPORT AND THEIR THERAPEUTIC USES” (IIT - Istituto Italiano di Tecnologia, priority 2011, published 2014)

Tests used:
carrageenan-treated mice = test: Carrageenan-induced inflammatory pain and paw edema in mice; type: in vivo; details: for effect of antagonist on the anti-hyperalgesic and anti-edema effects of ARN272: antagonist 1 mg/kg intraperitoneal, 30 min before carrageenan
Description: Behavioral experiments were performed in accordance with the Ethical Guidelines of the International Association for the Study of Pain and approved by Italian regulations on protection of animals used for experimental and other scientific purposes (D.M. 116192) as well as with European Economic Community regulations (O.J. of E.C. L 358/1 Dec. 18, 1986). Behavioral testing was performed between 9:00 a.m. and 5:00 p.m., in a quiet room, during the light cycle. Mice were used once and were sacrificed at the end of the experiment by cervical dislocation. edema was elicited by injecting λ-carrageenan (1% weight/vol in sterile water, 20 μl) into the left hindpaw of mice. Edema was measured with a plethysmometer (Ugo Basile, Comerio, Italy) at different time intervals. Drug solutions were prepared immediately before use in saline containing 10% PEG-400 and 10% Tween 80. Mechanical hyperalgesia was determined by measuring the latency in seconds to withdraw the paw away from a constant mechanical pressure exerted onto the dorsal surface. A 15-g calibrated glass cylindrical rod (diameter=10 mm) chambered to a conical point (diameter=3 mm) was used to exert the mechanical force. The weight was suspended vertically between two rings attached to a stand and was free to move vertically. A cutoff time of 180 s was used. Withdrawal thresholds were measured on both the inflamed paw (ipsilateral) and not inflamed paw (contralateral) 2, 4, 6 and 24 hours after carrageenan injection. Thermal hyperalgesia was assessed by the method of Hargreaves et al. (1988) by measuring the latency to withdraw the hind paw from a focused beam of radiant heat (thermal intensity: infrared 3.0) applied to the plantar surface using a plantar test apparatus (Ugo Basile). The cutoff time was set at 30 s. Withdrawal latency were measured on both inflamed and not-inflamed paws ( ) 2, 4, 6 and 24 hours after carrageenan injection. Vehicle or ARN272 (0.01-3 mg/kg, intraperitoneal) were injected immediately before carrageenan. AM251, AM630 and AMG 9810 (1 mg/kg, intraperitoneal) were injected 30 min before carrageenan.

[1] = biological target: T1, FLAT-expressing Hek293 cells (Rattus norvegicus, UniProt P97612, DEL9-76); test: [3H]-anandamide accumulation (translocation) in FLAT-expressing Hek293 cells; type: cell-based; details: for IC50: 5 min at 37° C., read-out: IC50, inhibition of [3H]-anandamide accumulation in FLAT-expressing Hek293 cells
T1 construct: expressed in transfected cells
T1 sequence (P97612 with tags, fused parts or gaps DEL9-76): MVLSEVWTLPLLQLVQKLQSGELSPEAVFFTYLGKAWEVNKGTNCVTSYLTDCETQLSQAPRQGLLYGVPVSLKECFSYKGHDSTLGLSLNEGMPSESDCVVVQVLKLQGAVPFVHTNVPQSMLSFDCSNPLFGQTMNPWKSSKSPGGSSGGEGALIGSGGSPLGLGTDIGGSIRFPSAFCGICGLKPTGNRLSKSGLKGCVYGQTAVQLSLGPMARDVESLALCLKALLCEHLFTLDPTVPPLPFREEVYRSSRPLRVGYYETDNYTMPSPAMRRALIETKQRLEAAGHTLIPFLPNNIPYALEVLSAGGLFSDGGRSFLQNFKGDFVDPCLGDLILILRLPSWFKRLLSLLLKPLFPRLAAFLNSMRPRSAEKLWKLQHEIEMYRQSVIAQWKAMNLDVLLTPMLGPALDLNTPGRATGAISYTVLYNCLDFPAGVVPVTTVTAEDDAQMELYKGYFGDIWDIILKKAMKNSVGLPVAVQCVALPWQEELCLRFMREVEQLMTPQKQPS

rat FLAT-GST = biological target: T2, rat FLAT-GST (Rattus norvegicus, UniProt P97612, DEL9-76); test: [3H]-anandamide binding to purified GST-FLAT fusion protein
T2 construct: made in house; host or cells: E. coli BL21
T2 sequence (P97612 with tags, fused parts or gaps DEL9-76): T1 sequence (P97612 with tags, fused parts or gaps DEL9-76)
Description: A pGEX-rFLAT plasmid containing fused rat FLAT and GST genes was constructed into a pGEX-4T vector (Amersham Biosciences, Piscataway, N.J.) and digested with BamH 1. The GST-FLAT fusion protein was generated in E. coli (BL21 strain, Novagen, San Diego, Calif.). E. coli were cultured in 2× yeast extract medium and induced with isopropyl-1-thio-β-D-galactopyranoside (IPTG) (0.1 mM). After induction, bacteria were grown at 27° C. for 10 h and harvested by centrifugation. The GST-FLAT fusion protein was purified using glutathione-sepharose beads (Amersham Biosciences), following manufacturer's instructions. Purified GST-FLAT was incubated at 25° C. for 2 h in HEPES buffer (50 mM, pH 7.0) containing KCl (50 mM), EDTA (5 mM), dithiothreitol (10 mM), and [^3H]-anandamide (15 Ci/mmol). Free from bound [^3H]-anandamide was separated on a Sephadex G-25 spin column (Amersham Biosciences) and radioactivity in the bound fraction was measured by liquid scintillation counting. Non-specific binding was determined in the presence of non-radioactive anandamide (10 μM).

[2] = Fatty acid amide measurements ex vivo (plasma levels in mice); details: 1 mg/kg intraperitoneal
Description: CD1 mice received intraperitoneal injections of vehicle (5% polyethylene glycol 400-5% Tween-80 in saline, 5 ml/kg) or ARN272 (1 mg/kg) and were sacrificed 1 h or 2 h later under isoflurane anaesthesia. Blood was collected through a left cardiac puncture and centrifuged at 2000×g for 30 min. Plasma (0.2 ml) was incubated with 1 ml cold acetone, centrifuged at 1,500×g for 15 min at 4° C. and suspended in 50% methanol (2 ml) containing the following deuterium-containing standards: […] Lipids were reconstituted in methanol (0.1 ml) and measured by isotope-dilution liquid chromatography/mass spectrometry (Fu, J. et al., J Biol Chem, 282, 1518 (2007)).

[3] = test system: rat cortical neurons in primary cultures; test: [3H]-anandamide accumulation in rat cortical neurons in primary cultures; type: cell-based; details: Cortical neurone, read-out: IC50, inhibition of [3H]-anandamide accumulation in rat cortical neurons
Description: Primary cultures of rat cortical neurons were prepared as described (Evans, M. S. et al., J Neurosci Methods, 79, 37 (1998)). Briefly, cerebral cortices from 18 day-old rat embryos were dissected and cells were dissociated gently with a glass Pasteur pipette in phosphate-buffered saline (PBS, 10 mM, pH=7.5) containing glucose (6%, weight/volume). The cells were plated in 6-well plates (at a density of 5×10^5 cells per well) coated with poly-(L)-ornithine (10 μg/ml) and poly(DL)-lysine (100 μg/ml), and cultured in Eagle's Minimum Essential Medium (MEM) supplemented with heat-inactivated horse serum (5%, vol/vol) and fetal bovine serum (FBS, 5%, vol/vol), glucose (30 mM), L-glutamine (2 mM), penicillin (10 units/ml), streptomycin (10 μg/ml) and HEPES (15 mM, pH 7.4). After 3 days in culture, media were replaced with Neurobasal (Invitrogen, Carlsbad, Calif.) supplemented with B-27 containing L-glutamine (0.1 mM), streptomycin (10 μg/ml) and penicillin (10 units/ml). The cultures were maintained at 37° C. in a humidified atmosphere of 95% air and 5% CO2. […] The cells were rinsed twice with Tris-Krebs buffer, scraped twice into sodium hydroxide (0.2 N, 0.5 ml) and transferred into scintillation vials. […] All experiments were conducted in triplicate.

[4] = biological target: T3, CB1 cannabinoid receptors (Rattus norvegicus, UniProt P20272); test: Cannabinoid receptor binding assay, [3H]-CP55940 to rat brain membranes
T3 construct: Brain membrane protein (50 μg) was incubated at 30° C. for 1 hr; from tissue; host or cells: rat brain membranes

recombinant human FAAH-1 = biological target: T4, recombinant human FAAH-1 (Homo sapiens, UniProt O00519); test: Hydrolysis of compound by incubation with recombinant human FAAH-1; type: in vitro ADME; details: after 24 h at 25° C.
T4 sequence (O00519 1-579): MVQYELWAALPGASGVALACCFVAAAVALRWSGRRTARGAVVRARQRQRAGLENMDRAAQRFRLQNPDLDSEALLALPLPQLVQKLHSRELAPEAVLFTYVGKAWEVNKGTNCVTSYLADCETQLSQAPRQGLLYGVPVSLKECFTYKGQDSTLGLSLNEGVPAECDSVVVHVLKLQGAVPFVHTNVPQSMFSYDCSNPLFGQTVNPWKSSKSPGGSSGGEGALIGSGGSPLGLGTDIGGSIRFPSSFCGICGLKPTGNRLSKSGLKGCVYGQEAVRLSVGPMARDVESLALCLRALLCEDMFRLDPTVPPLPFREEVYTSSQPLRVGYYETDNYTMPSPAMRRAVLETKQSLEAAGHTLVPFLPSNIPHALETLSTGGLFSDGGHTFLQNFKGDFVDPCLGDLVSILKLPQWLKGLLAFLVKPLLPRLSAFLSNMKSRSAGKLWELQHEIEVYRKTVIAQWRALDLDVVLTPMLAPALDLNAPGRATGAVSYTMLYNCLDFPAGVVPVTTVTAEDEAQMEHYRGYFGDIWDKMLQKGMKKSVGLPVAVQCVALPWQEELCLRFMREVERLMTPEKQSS

rat brain FAAH = biological target: T5, rat brain FAAH (Rattus norvegicus, UniProt P97612); test: FAAH activity assay, rat brain; type: biochemical; details: weak and incomplete inhibition
T5 construct: from tissue; host or cells: rat brain membranes
T5 sequence (P97612 1-579): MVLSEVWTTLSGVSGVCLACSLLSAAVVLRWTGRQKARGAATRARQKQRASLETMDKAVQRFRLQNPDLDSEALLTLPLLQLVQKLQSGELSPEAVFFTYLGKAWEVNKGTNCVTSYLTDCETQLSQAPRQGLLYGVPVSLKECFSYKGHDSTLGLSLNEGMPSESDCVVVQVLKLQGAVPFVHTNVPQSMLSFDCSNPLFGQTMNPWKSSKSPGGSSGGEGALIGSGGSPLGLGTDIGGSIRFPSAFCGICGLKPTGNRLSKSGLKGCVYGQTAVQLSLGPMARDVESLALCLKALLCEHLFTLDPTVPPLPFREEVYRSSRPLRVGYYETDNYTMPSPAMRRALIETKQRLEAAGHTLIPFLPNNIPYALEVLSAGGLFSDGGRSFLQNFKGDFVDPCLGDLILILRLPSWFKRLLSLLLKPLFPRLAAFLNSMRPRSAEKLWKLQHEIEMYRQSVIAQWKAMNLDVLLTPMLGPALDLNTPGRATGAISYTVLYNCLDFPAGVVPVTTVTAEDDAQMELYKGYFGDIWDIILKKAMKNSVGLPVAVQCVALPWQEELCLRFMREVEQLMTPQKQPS
Description: Cells were harvested and subjected to sonication in Tris-HCl buffer (50 mM, pH 8.0) containing sucrose ([…]). Debris was removed by centrifugation for 5 min at 1,000×g, and protein concentration measured using a commercial kit (Bio-Rad, Hercules, Calif.). […] After stopping the reactions with chloroform/methanol (1:1, vol/vol, 1 ml), radioactivity was measured in the aqueous layers.

rat cortical neurons = details: read-out: apparent Michaelis constant, KM, of anandamide transport; cited from earlier work

T3 sequence (P20272 whole entry): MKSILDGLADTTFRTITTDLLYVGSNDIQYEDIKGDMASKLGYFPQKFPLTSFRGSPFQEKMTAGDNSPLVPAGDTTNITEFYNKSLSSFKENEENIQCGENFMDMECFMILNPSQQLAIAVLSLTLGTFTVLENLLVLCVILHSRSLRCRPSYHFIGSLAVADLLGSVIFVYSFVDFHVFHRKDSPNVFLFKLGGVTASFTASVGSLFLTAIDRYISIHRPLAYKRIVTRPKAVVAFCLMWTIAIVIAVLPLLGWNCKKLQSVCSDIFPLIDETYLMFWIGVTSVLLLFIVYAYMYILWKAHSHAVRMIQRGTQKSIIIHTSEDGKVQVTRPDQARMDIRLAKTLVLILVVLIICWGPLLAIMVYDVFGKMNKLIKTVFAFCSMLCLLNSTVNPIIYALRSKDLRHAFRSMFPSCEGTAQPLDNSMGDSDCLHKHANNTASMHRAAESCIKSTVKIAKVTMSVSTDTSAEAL

Compound: Cc1c(C(=O)NN2CCCCC2)nn(-c2ccc(Cl)cc2Cl)c1-c1ccc(I)cc1 [AM251, reference compound]
- effect of antagonist on the anti-hyperalgesic and anti-edema effects of ARN272 (carrageenan-treated mice): suppressed

Compound: CCCCC/C=C\C/C=C\C/C=C\C/C=C\CCCC(=O)Nc1ccc(O)cc1 [AM404]
- IC50 [1]: 4 µM
- IC50 (rat FLAT-GST; purified recombinant FLAT, read-out: IC50, displacement of [3H]-anandamide binding to FLAT-GST): 5.3 µM

Compound: COc1ccc(C(=O)c2c(C)n(CCN3CCOCC3)c3cc(I)ccc23)cc1 [AM630, reference compound]
- effect of antagonist on the anti-hyperalgesic and anti-edema effects of ARN272 (carrageenan-treated mice): ineffective

Compound: CC(C)(C)c1ccc(/C=C/C(=O)Nc2ccc3c(c2)OCCO3)cc1 [AMG9810, reference compound]
- effect of antagonist on the anti-hyperalgesic and anti-edema effects of ARN272 (carrageenan-treated mice): ineffective

Compound: O=C(Nc1ccccc1)c1ccc(Nc2nnc(-c3ccc(O)cc3)c3ccccc23)cc1 [ARN272, 4-{[4-(4-hydroxyphenyl)phthalazin-1-yl]amino-N-phenylbenzamide}]
- plasma concentrations of anandamide [2]: increased
- plasma levels of 2-AG [2]: without changing
- plasma levels of OEA [2]: without changing
- plasma levels of PEA [2]: without changing
- IC50 [3]: 1.5 µM
- IC50 [1]: 3.5 µM
- effect on [3H]-CP55940 binding to rat brain membranes [4]: did not significantly alter
- fraction hydrolyzed by recombinant human FAAH-1 (recombinant human FAAH-1): ≈ 5%
- inhibition at 100 µM (rat brain FAAH): 50%
- mechanical hyperalgesia in inflamed paws (carrageenan-treated mice; 0.01-3 mg/kg intraperitoneal): dose-dependent reduction
- thermal hyperalgesia in inflamed paws (carrageenan-treated mice; 0.01-3 mg/kg intraperitoneal): dose-dependent reduction
- duration of anti-hyperalgesic effect (carrageenan-treated mice; after intraplantar carrageenan): up to 4 h
- paw edema (carrageenan-treated mice; intraperitoneal): substantially reduced

Compound: CCCCC/C=C\C/C=C\C/C=C\C/C=C\CCCC(=O)NCc1ccoc1 [UCM707]
- effect on [3H]-anandamide accumulation in FLAT-expressing Hek293 cells ([1]; transport inhibitors): prevented

Compound: CCCCC/C=C\C/C=C\C/C=C\C/C=C\CCCC(=O)Nc1ccc(O)cc1C [VDM11]
- effect on [3H]-anandamide accumulation in FLAT-expressing Hek293 cells ([1]; transport inhibitors): prevented

Compound: CCCCC/C=C\C/C=C\C/C=C\C/C=C\CCCC(=O)NCCO [anandamide]
- effect on [3H]-anandamide accumulation in FLAT-expressing Hek293 cells ([1]; non-radioactive anandamide, 100 μM): prevented
- Km (rat cortical neurons): 1.2 µM
- Kd (rat FLAT-GST; saturation binding, 25° C., 2 h, read-out: dissociation constant, Kd, of [3H]-anandamide binding to FLAT-GST): 2 µM
